In patent publication US12180187B2, “1-phenyl-5-azinylpyrazolyl-3-oxyalkyl acids and their use for controlling unwanted plant growth” (BAYER AKTIENGESELLSCHAFT, priority 2019, dated 2024):

Legend:
[1] = test system: ECHCG; test: Post-emergence action against ECHCG, 1.28 kg/ha; format: in vivo, Echinochloa crus-galli; conditions: dosage 1280 g/ha, visual rating about 3 weeks after treatment vs untreated controls
In short: (§1)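 Foliar application at the one-leaf stage: compound as WP or EC in water with 0.5% additive, sprayed at 600 L/ha. Plants are kept about 3 weeks in the greenhouse, then % herbicidal action is estimated visually (100% = death).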

[2] = test system: DIGSA; test: Pre-emergence action against DIGSA, 1280 g/ha; format: in vivo, Digitaria sanguinalis; conditions: visual scoring after about 3 weeks vs untreated controls, 100% = plants have died, 0% = like control plants
In short: (§2)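 Greenhouse pre-emergence test on sown seeds in sandy loam; soil-surface spray of formulated compound with 0.5% additive at 600 L/ha water. Scored visually, % vs untreated, after about 3 weeks.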

[3] = test system: VIOTR; test: Pre-emergence action at 320 g/ha against VIOTR; format: in vivo, Viola tricolor; conditions: dosage 320 g/ha
In short: (§3)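 Greenhouse pot trial in which formulated compound (wettable powder or emulsion concentrate) goes onto the soil surface right after sowing, at a spray volume of 600 l/ha including 0.5% additive. Effects are judged visually after about 3 weeks (0% = like control, 100% = dead).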

[4] = test system: SETVI; test: Post-emergence action against SETVI, 1.28 kg/ha; format: in vivo, Setaria viridis; conditions: dosage 1280 g/ha, visual rating about 3 weeks after treatment vs untreated controls
In short: as §1

[5] = test system: ABUTH; test: Post-emergence action at 320 g/ha against ABUTH; format: in vivo, Abutilon theophrasti; conditions: visual rating about 3 weeks after treatment vs untreated controls
In short: (§4)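 Activity is a visual rating against untreated controls, with 0% like control and 100% dead plants, made about 3 weeks after treatment. Plants grown in sandy loam in the greenhouse received a post-emergence spray at the one-leaf stage of 320 g/ha, formulated as WP or EC with 0.5% additive in 600 l/ha water.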

[6] = test system: ABUTH; test: Post-emergence action against ABUTH, 1.28 kg/ha; format: in vivo, Abutilon theophrasti; conditions: dosage 1280 g/ha, visual rating about 3 weeks after treatment vs untreated controls (100% = plants died)
In short: as §1

[7] = test system: AVEFA; test: Pre-emergence action at 320 g/ha against AVEFA; format: in vivo; conditions: visual scoring after about 3 weeks vs untreated controls
In short: as §3

[8] = test system: VIOTR; test: Post-emergence action at 320 g/ha against VIOTR; format: in vivo, Viola tricolor; conditions: visual rating about 3 weeks after treatment vs untreated controls
In short: as §4

[9] = test system: VERPE; test: Pre-emergence action at 320 g/ha against VERPE; format: in vivo, Veronica persica; conditions: visual scoring after about 3 weeks vs untreated controls
In short: as §3

[10] = test system: DIGSA; test: Post-emergence action against DIGSA, 1.28 kg/ha; format: in vivo, Digitaria sanguinalis; conditions: dosage 1280 g/ha, visual rating about 3 weeks after treatment vs untreated controls
In short: as §1

[11] = test system: LOLRI; test: Pre-emergence action against LOLRI, 1280 g/ha; format: in vivo, Lolium rigidum; conditions: visual scoring after about 3 weeks vs untreated controls, 100% = plants have died, 0% = like control plants
In short: as §2

[12] = test system: AMARE; test: Post-emergence action against AMARE, 1.28 kg/ha; format: in vivo, Amaranthus retroflexus; conditions: dosage 1280 g/ha, visual rating about 3 weeks after treatment vs untreated controls (100% = plants died)
In short: as §1

[13] = test system: AMARE; test: Post-emergence action at 320 g/ha against AMARE; format: in vivo, Amaranthus retroflexus; conditions: visual rating about 3 weeks after treatment vs untreated controls
In short: as §4

[14] = test system: ALOMY; test: Post-emergence action against ALOMY, 320 g/ha; format: in vivo, Alopecurus myosuroides; conditions: dosage 320 g/ha, visual rating about 3 weeks after treatment vs untreated controls (100% = plants died)
In short: as §4

[15] = test system: ALOMY; test: Post-emergence action against ALOMY, 1.28 kg/ha; format: in vivo, Alopecurus myosuroides; conditions: dosage 1280 g/ha, visual rating about 3 weeks after treatment vs untreated controls
In short: as §1

[16] = test system: MATIN; test: Post-emergence action against MATIN, 1.28 kg/ha; format: in vivo, Tripleurospermum inodorum (Matricaria inodora); conditions: dosage 1280 g/ha, visual rating about 3 weeks after treatment vs untreated controls (100% = plants died)
In short: as §1

[17] = test system: LOLRI; test: Post-emergence action against LOLRI, 1.28 kg/ha; format: in vivo, Lolium rigidum; conditions: dosage 1280 g/ha, visual rating about 3 weeks after treatment vs untreated controls
In short: as §1

Row | Compound | Post-emergence action against ECHCG [1] [%] | Pre-emergence action against DIGSA [2] [%] | Pre-emergence action against VIOTR in % [3] [%] | Post-emergence action against SETVI [4] [%] | Post-emergence action against ABUTH in % [5] [%] | Post-emergence action against ABUTH [6] [%] | Pre-emergence action against AVEFA in % [7] [%] | Post-emergence action against VIOTR in % [8] [%] | Pre-emergence action against VERPE in % [9] [%] | Post-emergence action against DIGSA [10] [%] | Pre-emergence action against LOLRI [11] [%] | Post-emergence action against AMARE [12] [%] | Post-emergence action against AMARE in % [13] [%] | Post-emergence action against ALOMY [14] [%] | Post-emergence action against ALOMY [15] [%] | Post-emergence action against MATIN [16] [%] | Post-emergence action against LOLRI [17] [%] | other results
1 | COC(=O)CNC(=O)COc1nn(-c2ccccc2F)c(-c2ccc(F)nc2)c1Br [Example X-002] | 90 | 100 | 100 | 100 | 90 | 90 | 100 | 90 | 100 | 100 | 100 | 90 | 100 | 100 | 90 | – | – | –
2 | COC(=O)COc1nn(-c2ccccc2F)c(-c2cncnc2)c1Br [VI-004, Methyl {[4-bromo-1-(2-fluorophenyl)-5-(pyrimidin-5-yl)-1H-pyrazol-3-yl]oxy}acetate] | – | – | – | 90 | 80 | 90 | – | – | – | – | – | 100 | – | – | – | 100 | 100 | pest or weed control at 1280 g/ha ([1]; Echinochloa crus-galli, 504 h): 90%; pest or weed control at 320 g/ha ([3]; Viola tricolor, 504 h): 100%; pest or weed control at 320 g/ha ([7]; Avena fatua, 504 h): 90%; pest or weed control at 320 g/ha ([8]; Viola tricolor, 504 h): 80%; pest or weed control at 320 g/ha ([9]; Veronica persica, 504 h): 100%; pest or weed control at 1280 g/ha ([11]; Lolium rigidum, 504 h): 100%; pest or weed control at 320 g/ha ([13]; Amaranthus retroflexus, 504 h): 90%
3 | O=C(O)COc1nn(-c2ccccc2F)c(-c2cncc(F)c2)c1Br [VII-025] | 100 | 100 | 100 | 90 | 90 | 90 | 80 | 90 | 100 | 100 | 100 | 90 | 90 | 100 | 100 | 90 | – | –
4 | COC(=O)COc1nn(-c2ccccc2F)c(-c2ccc(F)nc2)c1F [VII-040] | 100 | 100 | 100 | 90 | 90 | 90 | 100 | 90 | 100 | 100 | 100 | 90 | 90 | 100 | 100 | 90 | – | –
5 | COC(=O)C(C)Oc1nn(-c2ccccc2)c(-c2ccc(F)nc2)c1Br (stereo not shown) [VII-026] | 90 | 100 | 100 | – | 80 | 90 | – | 90 | 80 | 100 | 90 | 90 | 90 | 100 | 100 | 90 | – | –
6 | COC(=O)[C@@H](C)Oc1nn(-c2ccccc2)c(-c2cncnc2)c1Br [VI-013] | 100 | 100 | 100 | 90 | 80 | 90 | – | 90 | – | 90 | 100 | 90 | 90 | 80 | 100 | 100 | 90 | –
7 | COC(=O)COc1nn(-c2ccc(F)cc2)c(-c2cccnc2)c1Br [VII-028] | 90 | – | 100 | 90 | 80 | 90 | – | 80 | 100 | – | – | 100 | 80 | 80 | – | 90 | 90 | –
8 | CCOC(=O)COc1nn(-c2ccccc2F)c(-c2ccc(F)nc2)c1C(F)(F)F [VII-010] | 100 | 100 | 100 | 90 | 80 | 90 | 90 | 80 | 100 | 100 | 100 | – | 90 | 90 | 100 | 90 | – | –
9 | CS(=O)(=O)NC(=O)COc1nn(-c2ccccc2F)c(-c2ccc(F)nc2)c1Br [Example X-004] | 100 | 90 | 100 | 90 | 80 | – | 90 | 80 | 100 | 100 | 100 | 100 | 90 | 100 | 100 | 90 | – | –
10 | C[C@@H](Oc1nn(-c2ccccc2F)c(-c2cncnc2)c1Br)C(=O)O [VI-012] | 100 | 90 | 100 | 90 | 80 | – | 80 | 100 | 100 | 90 | 100 | 90 | 80 | – | 100 | – | 90 | –
